Test results taken from patent publication US3987177A, “Vincaminic acid esters” (Synthelabo, priority 1974, dated 1976).
Structures can show the parent of a compound that is named as a salt. Where two headings read alike, the source gives them in different places.

Assays:
Mice of the CD1 strain = test: Anoxia test on mice under low (oxygen) pressure conditions; type: in vivo; conditions: for Protective activity in the anoxia test under reduced pressure conditions, MAD (mean active dose, increases the survival time by 100%): CD1 mice, intraperitoneally 10 minutes before the test, 190 mm of mercury (5.25% oxygen), expressed as the base; for anti-anoxia activity compared to vincamine: mice, in words
Procedure: Mice of the CD1 strain are kept in an atmosphere depleted in oxygen, by producing a partial vacuum (190 mm of mercury, corresponding to 5.25% of oxygen).
The survival time of the animals is noted. This time is increased by agents capable of assisting tissue oxygenation and in particular cerebal oxygenation. The compounds studied are administered in several doses intraperitoneally 10 minutes before the test. The percentage increases in the survival time relative to the values obtained with comparison animals are calculated. The mean active dose (MAD), the dose which increases the survival time by 100%, is determined graphically.

mice of the strain CD1 = test: Acute toxicity (50% lethal dose) in mice; type: in vivo; conditions: for toxicity compared to vincamine, lower by a factor, intraperitoneal: intraperitoneally; for toxicity compared to vincamine, lower by a factor, intraperitoneal / toxicity compared to vincamine, lower by a factor, oral: factor vs vincamine; for toxicity compared to vincamine, lower by a factor, oral: orally
Water solubility = type: physicochemical; conditions: methylsulphonic acid salt
[1] = Acute toxicity (50% lethal dose) in mice; type: in vivo; conditions: mouse, in vivo
femoral artery of dogs = conditions: in words; no test or source given; cited from earlier work
[2] = ip, CD1 mice, intraperitoneal, mortality recorded for 7 days, read-out: Acute toxicity LD50, intraperitoneal
[3] = mice, oral, read-out: Acute toxicity LD50, oral

## CC[C@@]12C=C(C(=O)OC3CC(C)CC(C)(C)C3)n3c4c(c5ccccc53)CCN(CCC1)[C@H]42.Cl (some centres unmarked) [Example 1, 3,3,5-Trimethylcyclohexyl apovincaminate]
Mice of the CD1 strain
  Protective activity in the anoxia test under reduced pressure conditions, MAD (mean active dose, increases the survival time by 100%): 5.5 mg/kg
  anti-anoxia activity compared to vincamine: markedly greater than that of vincamine
Mice of the strain CD1; CD1 mice, intraperitoneal, mortality recorded for 7 days
  Acute toxicity LD50, intraperitoneal: 430 mg/kg
Mice of the strain CD1; mice
  toxicity compared to vincamine, lower by a factor, intraperitoneal: 2
  toxicity compared to vincamine, lower by a factor, oral: about 5
Mice of the strain CD1; mice, oral, 10080 min
  Acute toxicity LD50, oral: 2100 mg/kg

## CCC12C=C(C(=O)OC3CC(C)CC(C)(C)C3)n3c4c(c5ccccc53)CCN(CCC1)C42 (centres unmarked) [Example 3, methylsulphonic acid salt of 3,3,5-trimethylcyclohexyl apovincaminate]
Water solubility
  water solubility (in words): water-soluble
Mice of the CD1 strain
  Protective activity in the anoxia test under reduced pressure conditions, MAD (mean active dose, increases the survival time by 100%): 5 mg/kg
  anti-anoxia activity compared to vincamine: markedly greater than that of vincamine
[1]; [2]
  LD50 at 168 h: 440 mg/kg
[1]; [3]
  LD50 at 168 h: 2800 mg/kg
Mice of the strain CD1; mice
  toxicity compared to vincamine, lower by a factor, intraperitoneal: 2
  toxicity compared to vincamine, lower by a factor, oral: about 5

## CC[C@]12CCCN3CCc4c(n(c5ccccc45)[C@@](O)(C(=O)OC)C1)[C@@H]32 [Vincamine, reference compound]
Femoral artery of dogs
  vasodilating activity compared to papaverine (known compounds): at most equal to that of papaverine
Mice of the CD1 strain
  Protective activity in the anoxia test under reduced pressure conditions, MAD (mean active dose, increases the survival time by 100%): 8 mg/kg
[1]; [2]
  LD50 at 168 h: 215 mg/kg
[1]; [3]
  LD50 at 168 h: 460 mg/kg
